What was measured:
[1] = Clearance in cynomolgus monkey at 1 mg/kg, iv bolus; format: ADME, organism-based, Macaca fascicularis; parameters: dose 1 mg/kg, route intravenous; conditions: in vivo
[2] = Metabolic stability of the compound in monkey liver microsomes assessed as compound remaining at 3 uM after 30 mins; format: ADME, Macaca mulatta, Microsome; conditions: rhesus monkey, read-out: Stability
[3] = biological target: Mitogen-activated protein kinase 9 (Homo sapiens, UniProt P45984); assay: Inhibition of full length Hexa-His-tagged JNK2 using GST-tagged cJun and [gamma33P]ATP as substrate after 60 mins by scintillation counting
Rattus norvegicus [4] = assay: Antiinflammatory activity in po dosed CD rat whole blood assessed as inhibition of LPS-induced TNFalpha production administered 1 hr before LPS challenge measured by […]; format: functional, organism-based
Plasma = assay: Drug metabolism in rat plasma at 2 mg/kg after 60 mins; format: ADME, organism-based; parameters: dose 2 mg/kg; conditions: in vivo, 1 h
[5] = Metabolic stability of the compound in human liver microsomes assessed as compound remaining at 3 uM after 30 mins; format: ADME, Microsome; conditions: read-out: Stability
[6] = Mean residence time in cynomolgus monkey at 1 mg/kg, iv bolus; format: ADME, organism-based, Macaca fascicularis; parameters: dose 1 mg/kg, route intravenous; conditions: in vivo
Cytochrome P450 2D6 = Cytochrome P450 2D6 (Homo sapiens, UniProt P10635); assay: Inhibition of recombinant CYP2D6 up to 30 uM; format: ADME; conditions: recombinant enzyme
[7] = Metabolic stability of the compound in mouse liver microsomes assessed as compound remaining at 3 uM after 30 mins; format: ADME, Microsome; conditions: read-out: Stability
Mus musculus [8] = assay: Hepatoprotective activity in BALB/c mouse assessed as inhibition of concanavalin A-induced ALT elevation at 30 mg/kg, ip administered 1 hr prior Con A challenge; format: functional; conditions: route intraperitoneal
Rattus norvegicus [9] = assay: Antiischemic activity in Lewis rat ischemia reperfusion model assessed as increase in survival rate at 3 mg/kg, iv bolus administered 15 mins before ischemia challenge relative to control; format: functional
[10] = AUC in rat at 10 mg/kg, iv infusion; format: ADME, organism-based; parameters: dose 10 mg/kg, route intravenous; conditions: plasma
Rattus norvegicus [11] = assay: Toxicity in rat non-anesthetized rat at 30 mg/kg, iv infusion administered 4 hrs for 4 consecutive days; format: organism-based; parameters: dose 30 mg/kg, route intravenous; conditions: in vivo
[12] = biological target: Mitogen-activated protein kinase 10 (Homo sapiens, UniProt P53779); assay: Inhibition of full length Hexa-His-tagged JNK3 using GST-tagged cJun and [gamma33P]ATP as substrate after 60 mins by scintillation counting
hERG (KCNH2) = hERG (KCNH2) (Homo sapiens, UniProt Q12809); assay: Inhibition of human ERG at 10 uM
Cytochrome P450 2C19 = Cytochrome P450 2C19 (Homo sapiens, UniProt P33261); assay: Inhibition of recombinant CYP2C19 up to 30 uM; format: ADME; conditions: recombinant enzyme
[13] = Volume of distribution at steady state in rat at 2 to 10 mg/kg, iv; format: ADME, organism-based; parameters: dose 2-10 mg/kg, route intravenous; conditions: in vivo, read-out: Vdss
Cytochrome P450 3A4 = Cytochrome P450 3A4 (Homo sapiens, UniProt P08684); assay: Inhibition of CYP3A4 in human liver microsomes up to 30 uM; format: ADME, Microsome
[14] = Half life in dog at 1 mg/kg, iv bolus; format: ADME, organism-based, Canis lupus familiaris; parameters: dose 1 mg/kg, route intravenous; conditions: in vivo
[15] = Clearance in dog at 1 mg/kg, iv bolus; format: ADME, organism-based, Canis lupus familiaris; parameters: dose 1 mg/kg, route intravenous; conditions: in vivo
Hepatocyte [16] = assay: Drug metabolism in rat hepatocytes after 60 mins; format: ADME, cell-based; conditions: 1 h
Hepatocyte [17] = assay: Drug metabolism in mouse hepatocytes after 60 mins; format: ADME, cell-based; conditions: 1 h
Cytochrome P450 1A2 = biological target: T1, Cytochrome P450 1A2 (Homo sapiens, UniProt P05177); assay: Inhibition of recombinant CYP1A2 up to 30 uM; format: ADME; conditions: recombinant enzyme
T1 sequence (P05177 whole entry): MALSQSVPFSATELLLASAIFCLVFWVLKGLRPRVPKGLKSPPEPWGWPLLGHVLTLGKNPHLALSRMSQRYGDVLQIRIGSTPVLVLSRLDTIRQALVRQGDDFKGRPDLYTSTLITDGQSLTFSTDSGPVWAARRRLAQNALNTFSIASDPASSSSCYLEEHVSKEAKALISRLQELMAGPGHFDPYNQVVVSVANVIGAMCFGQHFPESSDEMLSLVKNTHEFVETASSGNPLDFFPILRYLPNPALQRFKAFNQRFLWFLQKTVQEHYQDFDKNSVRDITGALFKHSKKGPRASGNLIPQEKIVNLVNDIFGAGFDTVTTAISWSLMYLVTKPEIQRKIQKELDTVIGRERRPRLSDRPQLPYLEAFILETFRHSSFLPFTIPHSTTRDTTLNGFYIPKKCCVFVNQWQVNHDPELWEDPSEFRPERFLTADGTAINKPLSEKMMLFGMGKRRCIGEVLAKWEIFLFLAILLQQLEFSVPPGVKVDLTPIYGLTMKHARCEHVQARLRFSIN

[18] = Half life in rat at 2 to 10 mg/kg, iv bolus; format: ADME, organism-based; parameters: dose 2-10 mg/kg, route intravenous; conditions: in vivo
[19] = Clearance in rat at 2 to 10 mg/kg, iv; format: ADME, organism-based; parameters: dose 2-10 mg/kg, route intravenous; conditions: in vivo
[20] = AUC in cynomolgus monkey at 1 mg/kg, iv bolus; format: ADME, organism-based, Macaca fascicularis; parameters: dose 1 mg/kg, route intravenous; conditions: plasma
Rattus norvegicus [21] = assay: Toxicity in rat non-anesthetized rat at 10 mg/kg, iv infusion administered 4 hrs for 4 consecutive days; format: organism-based; parameters: dose 10 mg/kg, route intravenous; conditions: in vivo
Hepatocyte [22] = assay: Drug metabolism in human hepatocytes after 60 mins; format: ADME, cell-based; conditions: 1 h
CYP2B6 = biological target: T2, CYP2B6 (Homo sapiens, UniProt P20813); assay: Drug metabolism assessed as CYP2B6-mediated compound loss after 30 mins; format: ADME; conditions: recombinant enzyme; read-out: Drug metabolism
T2 sequence (P20813 whole entry): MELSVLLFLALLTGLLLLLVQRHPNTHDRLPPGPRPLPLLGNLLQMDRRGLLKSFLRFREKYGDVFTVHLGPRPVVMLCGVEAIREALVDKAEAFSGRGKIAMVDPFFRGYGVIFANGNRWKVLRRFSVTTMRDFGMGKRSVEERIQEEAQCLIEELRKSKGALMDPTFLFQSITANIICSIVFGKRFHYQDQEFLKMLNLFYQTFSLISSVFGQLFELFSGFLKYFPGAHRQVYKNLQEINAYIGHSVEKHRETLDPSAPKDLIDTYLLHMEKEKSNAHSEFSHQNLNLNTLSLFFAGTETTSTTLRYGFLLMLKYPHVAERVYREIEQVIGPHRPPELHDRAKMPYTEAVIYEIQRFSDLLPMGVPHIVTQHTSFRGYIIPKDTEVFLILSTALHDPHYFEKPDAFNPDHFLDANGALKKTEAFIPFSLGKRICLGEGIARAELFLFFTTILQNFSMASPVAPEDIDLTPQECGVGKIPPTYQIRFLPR

CYP2D6 = CYP2D6 (Homo sapiens, UniProt P10635); assay: Drug metabolism assessed as CYP2D6-mediated compound loss after 30 mins; format: ADME; conditions: recombinant enzyme; read-out: Drug metabolism
[23] = AUC in rat at 2 to 10 mg/kg, iv bolus; format: ADME, organism-based; parameters: dose 2-10 mg/kg, route intravenous; conditions: plasma
[24] = Volume of distribution at steady state in dog at 1 mg/kg, iv bolus; format: ADME, organism-based, Canis lupus familiaris; parameters: dose 1 mg/kg, route intravenous; conditions: in vivo, read-out: Vdss
Mus musculus [25] = assay: Hepatoprotective activity in BALB/c mouse assessed as inhibition of concanavalin A-induced ALT elevation at 60 mg/kg, ip administered 1 hr prior Con A challenge; format: functional; conditions: route intraperitoneal
[26] = biological target: c-Jun N-terminal kinase, JNK (Homo sapiens, UniProt P45983+P53779+P45984); assay: Inhibition of JNK-mediated cJun phosphorylation in human Jurkat T cells by Western blotting; format: cell-based
[27] = Half life in cynomolgus monkey at 1 mg/kg, iv bolus; format: ADME, organism-based, Macaca fascicularis; parameters: dose 1 mg/kg, route intravenous; conditions: in vivo
[28] = AUC in dog at 1 mg/kg, iv bolus; format: ADME, organism-based, Canis lupus familiaris; parameters: dose 1 mg/kg, route intravenous; conditions: plasma

Chain of Mitogen-activated protein kinase 10 (P53779 whole entry): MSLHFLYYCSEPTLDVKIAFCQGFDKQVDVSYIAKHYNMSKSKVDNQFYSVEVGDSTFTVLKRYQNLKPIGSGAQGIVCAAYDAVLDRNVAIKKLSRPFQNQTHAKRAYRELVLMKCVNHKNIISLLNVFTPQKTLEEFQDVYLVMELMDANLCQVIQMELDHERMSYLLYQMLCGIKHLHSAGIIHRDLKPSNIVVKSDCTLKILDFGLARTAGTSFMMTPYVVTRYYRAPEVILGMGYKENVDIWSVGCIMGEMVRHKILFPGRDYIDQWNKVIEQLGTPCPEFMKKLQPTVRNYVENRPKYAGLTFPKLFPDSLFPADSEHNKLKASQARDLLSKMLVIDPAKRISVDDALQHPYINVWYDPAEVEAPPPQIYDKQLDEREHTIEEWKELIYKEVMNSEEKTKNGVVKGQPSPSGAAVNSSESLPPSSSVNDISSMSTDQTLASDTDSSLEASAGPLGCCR
Chain of Cytochrome P450 2C19 (P33261 whole entry): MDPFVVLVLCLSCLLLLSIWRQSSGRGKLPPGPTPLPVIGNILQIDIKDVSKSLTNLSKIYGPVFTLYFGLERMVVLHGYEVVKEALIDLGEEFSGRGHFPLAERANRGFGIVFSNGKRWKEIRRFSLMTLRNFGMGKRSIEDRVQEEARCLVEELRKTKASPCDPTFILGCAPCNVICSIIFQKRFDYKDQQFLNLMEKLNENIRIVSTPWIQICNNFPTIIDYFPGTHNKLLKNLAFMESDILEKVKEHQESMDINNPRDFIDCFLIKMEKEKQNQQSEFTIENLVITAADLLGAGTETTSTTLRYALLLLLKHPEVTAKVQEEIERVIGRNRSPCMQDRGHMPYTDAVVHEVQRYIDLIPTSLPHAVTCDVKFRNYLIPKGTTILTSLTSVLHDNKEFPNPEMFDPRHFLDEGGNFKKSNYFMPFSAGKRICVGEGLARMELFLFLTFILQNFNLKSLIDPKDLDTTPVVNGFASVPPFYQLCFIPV
Chain of hERG (KCNH2) (Q12809 whole entry): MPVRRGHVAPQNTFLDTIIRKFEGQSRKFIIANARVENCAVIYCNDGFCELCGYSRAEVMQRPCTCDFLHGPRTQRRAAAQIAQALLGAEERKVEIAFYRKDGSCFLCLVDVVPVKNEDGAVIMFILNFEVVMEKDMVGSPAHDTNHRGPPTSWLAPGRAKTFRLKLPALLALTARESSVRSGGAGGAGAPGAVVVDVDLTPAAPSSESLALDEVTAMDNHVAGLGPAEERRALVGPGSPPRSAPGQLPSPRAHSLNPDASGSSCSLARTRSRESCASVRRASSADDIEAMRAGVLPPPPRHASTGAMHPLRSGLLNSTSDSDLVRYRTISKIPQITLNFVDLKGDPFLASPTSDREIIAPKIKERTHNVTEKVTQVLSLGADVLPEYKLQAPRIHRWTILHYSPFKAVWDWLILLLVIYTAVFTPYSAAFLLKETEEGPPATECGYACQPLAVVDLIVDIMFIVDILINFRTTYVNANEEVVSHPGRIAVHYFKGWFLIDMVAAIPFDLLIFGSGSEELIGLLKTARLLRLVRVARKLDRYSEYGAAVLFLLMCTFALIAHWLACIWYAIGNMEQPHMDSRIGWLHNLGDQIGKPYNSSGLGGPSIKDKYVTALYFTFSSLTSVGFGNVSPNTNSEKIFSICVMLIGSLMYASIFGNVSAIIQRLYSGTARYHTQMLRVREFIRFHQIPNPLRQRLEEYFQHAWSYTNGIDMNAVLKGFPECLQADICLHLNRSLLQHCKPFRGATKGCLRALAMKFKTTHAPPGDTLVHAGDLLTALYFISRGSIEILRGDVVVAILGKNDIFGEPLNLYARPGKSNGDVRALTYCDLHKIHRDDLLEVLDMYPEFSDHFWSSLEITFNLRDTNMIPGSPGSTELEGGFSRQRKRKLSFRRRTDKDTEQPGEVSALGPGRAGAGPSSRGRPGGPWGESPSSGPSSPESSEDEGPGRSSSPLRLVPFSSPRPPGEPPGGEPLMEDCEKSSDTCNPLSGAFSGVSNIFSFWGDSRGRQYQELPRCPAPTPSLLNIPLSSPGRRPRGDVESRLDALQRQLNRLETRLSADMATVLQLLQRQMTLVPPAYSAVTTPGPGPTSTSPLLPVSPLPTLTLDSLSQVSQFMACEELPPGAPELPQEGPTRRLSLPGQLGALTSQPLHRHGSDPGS
Chain of Mitogen-activated protein kinase 9 (P45984 whole entry): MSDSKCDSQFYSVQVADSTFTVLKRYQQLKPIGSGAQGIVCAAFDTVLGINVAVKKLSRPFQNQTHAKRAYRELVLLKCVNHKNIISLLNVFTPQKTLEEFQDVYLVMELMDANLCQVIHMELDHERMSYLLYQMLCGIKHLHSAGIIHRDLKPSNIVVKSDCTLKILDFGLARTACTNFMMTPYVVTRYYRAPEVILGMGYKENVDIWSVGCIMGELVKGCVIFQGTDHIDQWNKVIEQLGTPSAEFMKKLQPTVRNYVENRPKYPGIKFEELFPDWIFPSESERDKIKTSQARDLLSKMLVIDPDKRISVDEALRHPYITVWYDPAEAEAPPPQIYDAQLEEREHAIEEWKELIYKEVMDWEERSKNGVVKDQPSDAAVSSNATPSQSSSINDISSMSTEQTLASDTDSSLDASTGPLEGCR
Chain of Cytochrome P450 2D6 (P10635 whole entry): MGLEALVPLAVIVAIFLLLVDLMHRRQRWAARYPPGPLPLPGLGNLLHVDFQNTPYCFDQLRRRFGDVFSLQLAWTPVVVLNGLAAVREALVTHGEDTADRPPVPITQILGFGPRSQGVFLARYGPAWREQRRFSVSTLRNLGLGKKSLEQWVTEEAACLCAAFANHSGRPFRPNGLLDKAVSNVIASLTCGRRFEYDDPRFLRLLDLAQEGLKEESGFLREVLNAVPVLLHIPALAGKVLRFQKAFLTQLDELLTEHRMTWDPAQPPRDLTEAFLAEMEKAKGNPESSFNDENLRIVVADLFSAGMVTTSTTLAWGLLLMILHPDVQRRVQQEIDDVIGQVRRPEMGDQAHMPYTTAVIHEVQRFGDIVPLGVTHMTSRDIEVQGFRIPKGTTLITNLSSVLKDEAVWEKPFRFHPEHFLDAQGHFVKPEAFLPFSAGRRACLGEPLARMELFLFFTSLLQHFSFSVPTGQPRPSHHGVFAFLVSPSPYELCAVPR
Chain of CYP2D6 (P10635 whole entry): as above
Chain of Cytochrome P450 3A4 (P08684 whole entry): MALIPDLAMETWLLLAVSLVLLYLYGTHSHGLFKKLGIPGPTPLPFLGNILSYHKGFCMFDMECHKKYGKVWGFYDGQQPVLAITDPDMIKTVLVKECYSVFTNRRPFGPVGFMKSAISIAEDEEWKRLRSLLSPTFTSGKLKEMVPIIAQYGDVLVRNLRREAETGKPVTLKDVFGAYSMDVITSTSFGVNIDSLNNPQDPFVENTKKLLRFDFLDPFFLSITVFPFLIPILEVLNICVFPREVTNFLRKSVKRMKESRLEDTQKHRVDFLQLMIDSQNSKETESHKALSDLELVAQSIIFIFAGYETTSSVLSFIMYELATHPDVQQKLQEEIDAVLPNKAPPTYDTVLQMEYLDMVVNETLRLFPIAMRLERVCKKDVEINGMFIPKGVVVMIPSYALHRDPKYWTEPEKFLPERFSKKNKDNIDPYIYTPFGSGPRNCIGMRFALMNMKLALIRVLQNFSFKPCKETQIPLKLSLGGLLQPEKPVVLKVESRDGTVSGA

SMILES: N[C@H]1CC[C@H](Nc2ncc3nc(Nc4ccc(F)cc4F)n(C4CCCC4)c3n2)CC1
- clearance [1]: 5 mL/min/kg
- remaining at 0.5 h, 3 µM [2]: 100%
- IC50 [3]: 25 nM
- IC50 (Rattus norvegicus [4]): 1500 nM
- Drug metabolism (Plasma): Not Active
- remaining at 0.5 h, 3 µM [5]: 100%
- MRT [6]: 40 h
- inhibition (INH) (Cytochrome P450 2D6): Not Active
- remaining at 0.5 h, 3 µM [7]: 100%
- inhibition in vivo at 30 mg/kg (Mus musculus [8]): 41%
- survival at 3 mg/kg (Rattus norvegicus [9]): 60%
- AUC [10]: 3.8 µM·h
- Activity (Rattus norvegicus [11]): Non-toxic
- IC50 [12]: 24 nM
- inhibition at 10 µM (hERG (KCNH2)): 59%
- inhibition (INH) (Cytochrome P450 2C19): Not Active
- Vd [13]: 75 L/kg
- inhibition (INH) (Cytochrome P450 3A4): Not Active
- half-life [14]: 17 h
- clearance [15]: 28 mL/min/kg
- Drug metabolism (Hepatocyte [16]): Not Active
- Drug metabolism (Hepatocyte [17]): Not Active
- inhibition (INH) (Cytochrome P450 1A2): Not Active
- half-life [18]: 17 h
- clearance [19]: 66 mL/min/kg
- AUC [20]: 7 µM·h
- Activity (Rattus norvegicus [21]): Non-toxic
- Drug metabolism (Hepatocyte [22]): Not Active
- metabolised at 0.5 h (CYP2B6): 14%
- metabolised at 0.5 h (CYP2D6): 1.4%
- AUC [23]: 4.7 µM·h
- Vd [24]: 30 L/kg
- inhibition in vivo at 60 mg/kg (Mus musculus [25]): 98%
- IC50 [26]: 400 nM
- half-life [27]: 37 h
- AUC [28]: 1.2 µM·h

From ChEMBL document CHEMBL1944604, “Aminopurine based JNK inhibitors for the prevention of ischemia reperfusion injury” (Bioorg Med Chem Lett, 2012)
